Experimental data taken from US6416746B1, “Indanylidene compounds” (Roche Vitamins Inc., priority 1998, dated 2002).

Experiments:
[1] = Solubility in cosmetic solvents (CÉTIOL LC, CRODAMOL DA); details: for Solubility in CRODAMOL DA: solvent CRODAMOL DA (Diisopropyl adipate); for Solubility in CÉTIOL LC: solvent CÉTIOL LC (Coco-caprylate/caprate); for solubility in cosmetic solvents (in words): cosmetic solvents such as CÉTIOL LC and CRODAMOL DA
[2] = Photostability at high dilution in ethanol solution under Hg lamp with Pyrex filter; assay type: physicochemical
Protocol: A 25 ml reaction flask equipped with a distillation bridge and connected to vacuum was charged with 2 g (6.3 mmol) of cyano-(2,3-dihydro-5,6-dimethoxy-3,3-dimethyl-1H-inden-1-ylidene) acetic acid ethyl ester (see Example 1), 1.37 g (6.6 mmol) of 3-(1,1,3,3,3-pentamethy-disiloxanyl)-propanol (see above) and 3 mg of tetraisopropyl ortho titanate. The mixture was heated to 115° C. to 120° C. at a vacuum of 360 mbar with stirring for 11 hours.

| SMILES | Solubility in CRODAMOL DA [1] | Solubility in CÉTIOL LC [1] | Solubility in CÉTIOL LC ([1]; listed as drawing 30) | photostability [2] | solubility in cosmetic solvents (in words) [1] | Solubility in CÉTIOL LC ([1]; listed as drawing 33) |
| --- | --- | --- | --- | --- | --- | --- |
| CCOC(=O)/C(C#N)=C1\CC(C)(C)c2cc(OC)c(OC)cc21 [Example 1, Cyano-(2,3-dihydro-5,6-dimethoxy-3,3-dimethyl-1H-inden-1-ylidene)acetic Acid Ethyl Ester, reference compound] | 1.71% | 0.35% | 0.35% |  |  |  |
| COc1cc2c(cc1OC)C(C)(C)C/C2=C(/C#N)C(=O)OCCC[Si](C)(C)O[Si](C)(C)C [Example 2, Cyano-(2,3-dihydro-5,6-dimethoxy-3,3-dimethyl-1H-inden-1-ylidene) acetic Acid-3-(1,1,3,3,3-pentamethy-disiloxanyl)-propyl Ester] | miscible |  |  | excellent photostability | excellent solubility |  |
| COc1cc2c(cc1OC)C(C)(C)C/C2=C(/C#N)C(=O)OCC(C)C[Si](C)(C)O[Si](C)(C)C (centres unmarked) [Example 3, Cyano-(2,3-dihydro-5,6-dimethoxy-3,3-dimethyl-1H-inden-1-ylidene) acetic Acid-3-(1,1,3,3,3-pentamethy-disiloxanyl)-2-methyl-propyl Ester] | miscible |  |  | same solubility and photostability qualities as described in Example 2b | same solubility and photostability qualities as described in Example 2b |  |
| COc1cc2c(cc1OC)C(C)(C)C/C2=C(/C#N)C(=O)OCCCC[Si](C)(O[Si](C)(C)C)O[Si](C)(C)C [Example 4, Cyano-(2,3-dihydro-5,6-dimethoxy-3,3-dimethyl-1H-inden-1-ylidene) acetic Acid-4-(1,3,3,3-tetramethyl-1-[(trimethylsilyl)-oxy]-disiloxanyl)-butyl Ester] | miscible |  |  | excellent photostability |  |  |
| CC[Si](CC)(CC)CCOCCCCOC(=O)/C(C#N)=C1\CC(C)(C)c2cc(OC)c(OC)cc21 [Example 5, Cyano-(2,3-dihydro-5,6-dimethoxy-3,3-dimethyl-1H-inden-1-ylidene) acetic Acid-4-(2-triethylsilanyl-ethoxy)-butyl Ester] | miscible |  |  | same solubility and photostability qualities as described in Example 2b | same solubility and photostability qualities as described in Example 2b |  |
| CC[Si](/C=C/CCOC(=O)/C(C#N)=C1\CC(C)(C)c2cc(OC)c(OC)cc21)(CC)CC [Example 6, Cyano-(2,3-dihydro-5,6-dimethoxy-3,3-dimethyl-1H-inden-1-ylidene) acetic Acid-4-triethylsilanyl-but-3-enyl Ester] | miscible |  |  | same solubility and photostability qualities as described in Example 2b | same solubility and photostability qualities as described in Example 2b |  |
| COc1ccc2c(c1)CC(C)/C2=C(/C#N)C(=O)OCCCC[Si](C)(C)O[Si](C)(C)C (centres unmarked) [Example 7, Cyano-(2,3-dihydro-5-methoxy-2-methyl-1H-inden-1-ylidene)acetic Acid-4-(1,1,3,3,3-pentamethy-disiloxanyl)-butyl Ester] | miscible |  |  | same solubility and photostability qualities as described in Example 2b | same solubility and photostability qualities as described in Example 2b |  |
| C=C(CNC(=O)/C(C#N)=C1\CC(C)(C)c2cc(OC)c(OC)cc21)[Si](C)(O[Si](C)(C)C)O[Si](C)(C)C [Example 8, Cyano-(2,3-dihydro-5,6-dimethoxy-3,3-dimethyl-1H-inden-1-ylidene)acetic Acid-2-(1,3,3,3-tetramethyl-1-[(trimethylsilyl)-oxy]-disiloxanyl)-prop-2-enyl Amide] | miscible |  |  | same photostability qualities as described in Example 2b |  |  |
| C#CCNC(=O)/C(C#N)=C1\CC(C)(C)c2cc(OC)c(OC)cc21 [Example 8b, 2-Cyano-2-(5,6-dimethoxy-3,3-dimethyl-indan-1-ylidene)-N-prop-2-ynyl-acetamide, reference compound] |  | 0.04% |  |  |  | 0.04% |
| C=C(COc1cc2c(cc1OC)/C(=C(\C#N)C(=O)OCC)CC2(C)C)[Si](C)(O[Si](C)(C)C)O[Si](C)(C)C [Example 11] | miscible |  |  | same photostability qualities as described in Example 2b |  |  |
| CCOC(=O)/C(C#N)=C1\CC(C)(C)c2cc(OC)ccc21 [drawing 31, reference compound] | 0.60% | 0.10% |  |  |  |  |
| CCOC(=O)/C(C#N)=C1\CC(C)(C)c2cc(OC)ccc21 [drawing 32, reference compound] |  | 0.09% |  |  |  |  |
